Reference: paper PMC12040169 (PLOS Biology, 2025)

Experiment: in vitro
Conditions: human, hela cells, % viability

Row | SMILES | viability at 28.5 h, 10 µM
1 | CC(=O)Nc1ccc(N2C(=O)CC(NCCCN3CCOCC3)C2=O)cc1 (stereo not drawn) [CBK265236] | 115%
2 | CC[C@H]1CN(C(=O)c2cccnc2)CC[C@H]1CC(=O)N1CCC(C(N)=O)CC1 [CBK288772] | 104%
3 | CN(C)CCN1CCN(c2cncc(-c3cccc(C(=O)O)c3)n2)CC1 [CBK065443] | 104%
4 | O=C(O)C1CCCCC1C(=O)NCCCCc1ccccc1 (stereo not drawn) [CBK287205] | 83.2%
5 | O=C(NCc1cccs1)C1(c2ccccc2)CCCC1 [CBK149533] | 103%
6 | O=C(C1CCCCC1)N1CCC(n2nc(C3CC3)ccc2=O)CC1 [CBK284240] | 90.7%
7 | COc1ccc(-n2nc3ccc(NC(=O)c4sc5ccccc5c4Cl)cc3n2)cc1Cl [CBK264633] | 94.5%
8 | CC(=O)Nc1ccc(S(=O)(=O)NNC(=O)c2cccc(Cl)c2)cc1 [CBK261694] | 89.4%
9 | Cc1cc(C(=O)Nc2ccc3ncccc3c2)ccc1Cl [CBK159804] | 88.8%
10 | CCCCc1cc(=O)[nH]c(N2CCOCC2)n1 [CBK003851] | 102%
11 | CN(Cc1cc(C(C)(C)C)c(O)c(C(C)(C)C)c1)Cc1cc(C(C)(C)C)c(O)c(C(C)(C)C)c1 [CBK261980] | 97%
12 | O=C(NC(Cc1cccs1)c1nccs1)c1cc[nH]n1 (stereo not drawn) [CBK285052] | 87.4%
13 | O=C1CCC(=O)N1CCOc1nccnc1OC1CCNCC1 [CBK075084T] | 101%
14 | Cc1c(Cl)c(C(=O)N[C@@H]2CCN(Cc3ccccn3)C[C@H]2O)nn1C [CBK306676] | 96%
15 | CCNCCOc1c(C)cc(C)cc1C [CBK270137C] | 108%
16 | CC(C)N(Cc1cccnc1)C(=O)Cn1c(C2CC2)nc2ccccc21 [CBK306156] | 104%
17 | O=C1c2ccccc2S(=O)(=O)N1c1ccc(F)cc1 [CBK113194] | 112%
18 | COC(=O)c1c(NC(=S)NNC(=O)c2nn(C)c(C)c2Br)sc2c1CCC(C)C2 (stereo not drawn) [CBK267052] | 93.9%
19 | Cc1nnc(N2CCn3nc(C(O)Cc4ccccc4)cc3C2)s1 (stereo not drawn) [CBK307152] | 86%
20 | O=C(NC(c1cccc([N+](=O)[O-])c1)c1cc(Cl)c2cccnc2c1O)c1cccnc1 (stereo not drawn) [CBK263987] | 92.5%
21 | CN1CCN(C(=O)CC[C@@H]2CNC(=O)[C@@H]3C[C@H](NC(=O)c4cccs4)CN23)CC1 [CBK289013] | 124%
22 | COC(=O)Nc1cc2sccc2nc1C(F)(F)F [CBK019229] | 80%
23 | Cc1ccc(S(=O)(=O)N[C@H]2CO[C@H]3[C@@H]2OC[C@@H]3n2nnnc2Oc2ccccc2)cc1 [CBK289485] | 82.4%

Row | SMILES | viability at 28.5 h, 10 µM
24 | Cc1noc(C)c1CN(C)C(C)C(=O)Nc1nccs1 (stereo not drawn) [CBK304826] | 105%
25 | O=C(NCCNc1cnccn1)c1cc(Br)ccc1F [CBK253480] | 110%
26 | CCN(C)S(=O)(=O)c1ccc(Cl)c(Cl)c1 [CBK045392] | 113%
27 | COc1cc(NC(=O)c2cnc(-c3ccc(Cl)cc3)c(-c3ccco3)c2)cc(C(F)(F)F)c1 [CBK037570] | 91.4%
28 | Cc1cc(C=O)c(C)n1-c1ccc(Oc2ccc([N+](=O)[O-])cn2)cc1 [CBK264167] | 99.9%
29 | O=C(O)CCC(NC(=O)c1ccc(-c2ccc(Cl)cc2)s1)C(=O)O (stereo not drawn) [CBK295171] | 92.9%
30 | O=C(c1cccnc1)C1CCN(C(=O)C2CCCCC2)CC1 [CBK283817] | 90%
31 | Cc1noc(C)c1S(=O)(=O)Nc1ccnn1C [CBK062073] | 90.1%
32 | CC1=Nc2c(ccc3nsnc23)NC(=O)C1 [CBK019676] | 97.1%
33 | O=C(Cc1ccsc1)N1CCn2nc(C(O)Cc3ccccc3)cc2C1 (stereo not drawn) [CBK306547] | 95.9%
34 | OCn1nc(-c2ccc(Cl)cc2Cl)oc1=S [CBK288410] | 107%
35 | O=S(=O)(Nc1nc2c(s1)CCCC2)c1ccc(Br)cc1 [CBK097787] | 89.7%
36 | O=C(Nc1ccc2[nH]ccc2c1)N1CCc2ccccc2C1 [CBK155289] | 84.5%
37 | O=C(CSc1nnc(CN2CCOCC2)n1-c1ccc(Cl)cc1)N1c2ccccc2SC2C=CC=CC21 (stereo not drawn) [CBK268820] | 91.3%
38 | Cc1nn(C)c(C)c1CC(=O)Nc1nc(C(C)(C)C)cs1 [CBK250992] | 105%
39 | CC1CN(S(=O)(=O)N2CCOCC2)CCN1S(=O)(=O)N1CCOCC1 (stereo not drawn) [CBK269011] | 101%
40 | Cc1ccc(-n2nc(-c3ccc(NC(=O)c4ccccc4)cc3)cc2NC(=O)c2ccccc2)cc1 [CBK261265] | 92.3%
41 | Cc1cccnc1NC(=O)C(C)n1cc([N+](=O)[O-])cn1 (stereo not drawn) [CBK268918] | 104%
42 | Cc1ccc(C(=O)CC(C(=O)O)c2c(C)[nH]c3ccccc23)cc1 (stereo not drawn) [CBK269337] | 96.1%
43 | O=C(NCC1CCCO1)c1ccc(-n2ccnc2)c(-n2cccc2)c1 (stereo not drawn) [CBK285356] | 98.2%
44 | CS(=O)(=O)c1ccc(-n2nnnc2CN2CCC3(CCCC3)C2)cc1 [CBK306178] | 89.4%
45 | Nc1ccc(-c2cncc(NCCc3ccccn3)n2)cc1 [CBK065632] | 103%
46 | Oc1nsnc1-c1ccccc1 [CBK026014] | 95%

Row | SMILES | viability at 28.5 h, 10 µM
47 | CCOc1nnc(CN(CCC(N)=O)c2ccc(F)cc2)s1 [CBK305536] | 110%
48 | O=C(c1ccc2[nH]ccc2c1)N1CCCC1 [CBK149074] | 106%
49 | COc1ccccc1C(=O)N1CCC(Cc2ccccc2-c2ccccc2)(C(N)=O)CC1 [CBK285739] | 96.4%
50 | N#C/C(=C\c1cn(-c2ccccc2)nc1-c1cccc(S(=O)(=O)N2CCCCCC2)c1)c1nc2ccccc2c(=O)[nH]1 [CBK266347] | 103%
51 | CC(Oc1ccc(Br)cc1Cl)C(=O)NCCCN1CCCC1=O (stereo not drawn) [CBK268138] | 98.7%
52 | Cc1ccc(-c2nn(CCC#N)cc2C(=O)N2CCCCC2)cc1 [CBK306119] | 89.6%
53 | Cc1cc(C)n(CC(=O)NC(CC(=O)O)c2ccccc2Cl)n1 (stereo not drawn) [CBK305695] | 106%
54 | Cc1ccc(C(Cc2ccsc2)NS(=O)(=O)c2ccc3[nH]c(=O)[nH]c(=O)c3c2)nc1 (stereo not drawn) [CBK286354] | 88.6%
55 | NCc1cnc2c(c1)CCC2 [CBK018584G] | 90.8%
56 | CCCn1c(SC(C)C(=O)c2cc(C)n(-c3ccc(Cl)cc3)c2C)n[nH]c1=O (stereo not drawn) [CBK295595] | 86.2%
57 | COc1ccc(C(=O)OC(C)(C)C)c(-c2cncc(NC3CCC(N)CC3)n2)c1 (stereo not drawn) [CBK037922] | 109%
58 | O=C(O)Cc1ccc(NC(=O)CN2C(=O)c3ccccc3C2=O)cc1 [CBK268562] | 104%
59 | CCOC(=O)CCNC(=O)c1ccccc1-n1cccc1 [CBK149611] | 95.3%
60 | C1CCc2nnc(C34CC5CC(CC(C5)C3)C4)n2CC1 [CBK200068] | 83.5%
61 | CCOc1ccc(S(=O)(=O)N(C)CC(=O)N2CCN(C)CC2)cc1 [CBK269953] | 93.8%
62 | Cc1cccnc1CN(C)C(=O)c1cccc(NC(=O)C2CCCC2)c1 [CBK306913] | 82.9%
63 | CCN(CC)CCn1c2ccc(C)cc2c2nc(C)sc21 [CBK269764C] | 99.7%
64 | O=S1(=O)CCN(CC2COc3ccccc3O2)CC1 (stereo not drawn) [CBK074789] | 88.5%
65 | Cc1cc(S(=O)(=O)NCc2ccccc2-n2ccnc2)ccc1F [CBK281477] | 92.1%
66 | N[C@H]1CO[C@H]2[C@@H]1OC[C@@H]2n1cc(-c2ccccc2)nn1 [CBK289502] | 81.6%
67 | CN(C)CCCN(Cc1cnn(-c2ccccc2)c1)Cc1ccco1 [CBK283040] | 110%
68 | CCC1(CC)OC(NC[C@@H](C)c2ccccc2)=NC1=O [CBK123983] | 116%
69 | Cc1ccc(-c2nnc(CNC(=O)c3cccc(F)c3F)o2)s1 [CBK284641] | 91.1%

Row | SMILES | viability at 28.5 h, 10 µM
70 | COC(=O)c1ccc(N2CCOCC2)c(NC(=O)c2cccnc2)c1 [CBK270257] | 95.9%
71 | CCOC(=O)C1CCN(CC(=O)Nc2ccc(S(N)(=O)=O)cc2)CC1 [CBK266118] | 94%
72 | CCN(CC)C(=O)C1CCCN(Cc2cccc(Oc3ccccc3)c2)C1 (stereo not drawn) [CBK261581] | 92.6%
73 | CC(C)(C)C1CCc2c(sc(NC(=O)c3cccs3)c2C(N)=O)C1 (stereo not drawn) [CBK307114] | 85.4%
74 | COC(=O)[C@H]1CN(C(=O)c2cccs2)C[C@@H]1c1ccc(F)cc1 [CBK283732] | 92%
75 | Cn1cncc1CN(Cc1ccccc1)C1CC(C)(C)NC(C)(C)C1 [CBK283226] | 89.1%
76 | Cc1ccc(OCCC(=O)NCC(c2cccs2)N2CCOCC2)cc1 (stereo not drawn) [CBK305976] | 90.9%
77 | COc1cccc(CC(=O)NCCNc2cccc(F)c2C#N)c1 [CBK305684] | 78.5%
78 | Cc1noc2nc(-c3ccco3)cc(C(=O)NCc3nc4ccccc4[nH]3)c12 [CBK295608] | 93.5%
79 | Cc1ccc(S(=O)(=O)Nc2c(C(=O)N3CCOCC3)[nH]c3ccccc23)cc1 [CBK050066] | 88.7%
80 | O=C(NNC(=O)c1ccccc1C(=O)O)c1cccc(Cl)c1 [CBK261658] | 94.7%
81 | CN(C)CCN(C)c1ccc(/C=C/c2ccccc2)cn1 [CBK037026] | 98.4%
82 | CN(Cc1ccc(-c2ccc(S(C)(=O)=O)cc2)nc1)C1CCN(C(=O)c2ccc(Cl)c(Cl)c2)CC1 [CBK164101T] | 104%
83 | CCn1cc(C(=O)N2CCC(C(=O)OC)CC2)c(=O)c2ccc(C)nc21 [CBK305848] | 110%
84 | CCCS(=O)(=O)Nc1nccnc1-c1ccc(Oc2ccccc2)cc1 [CBK050908] | 106%
85 | COc1ccc(-c2nc(NC(=O)C3CCC(OC)CC3)cnc2-c2cccc(C)c2)cn1 (stereo not drawn) [CBK036813] | 109%
86 | CN(CCCC(=O)O)c1nc(-c2ccc(Br)cc2)cs1 [CBK299834] | 88.6%
87 | CC(=O)c1c(C)nn(CCC(=O)Nc2ccc(Cl)c(Cl)c2)c1C [CBK269829] | 99.3%
88 | CCN1CCCC1CN(Cc1cnn(C)c1)Cc1ccco1 (stereo not drawn) [CBK282470] | 96.6%
89 | Cc1cc(C(=O)Nc2nncs2)c2ccc(F)cc2n1 [CBK297738] | 85.3%
90 | COc1ncc(-c2nccnc2NCc2cccc(Cl)c2)c(OC)n1 [CBK037990] | 90%
